The test system of experiment [1] is KRas-mediated phosphorylation of ERK in HCT116 cells. The experiment in a line: Inhibition of KRas-mediated phosphorylation of ERK (Cisbio HTRF pERK), HCT116 cells. Format: cell-based. Conditions: Homo sapiens, HCT-116, HTRF pERK. An outline of the steps:
(§1)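 Phosphorylated ERK was quantified by HTRF using d2-conjugate and Cryptate antibodies added to lysates for 2 hrs at room temperature.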

Experiment [2] has as its system KRas-mediated phosphorylation of ERK in H727 cells. Kind of experiment: Inhibition of KRas-mediated phosphorylation of ERK (Cisbio HTRF pERK), H727 cells. It is filed as cell-based. The settings on record: Homo sapiens, NCI-H727, H727 cells; HTRF pERK. The procedure, abridged: (§2)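 Signal read by HTRF (d2/Cryptate antibody pair, 2 hr room-temperature incubation on lysate). Cells: 6,000 per well, 3 hr compound exposure. Titration: 10 uM highest, 3-fold, 10 points.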
(Time-resolved FRET reads energy transfer from a long-lived donor to a nearby acceptor.)

In experiment [3] the target is T1, KRas^G12D (Homo sapiens, UniProt P01116, G12D).
T1 construct: Biotinylated KRas (corresponding to amino acids 1-169, produced at Accelegan Inc.); biotin (biotinylated); purchased Accelegan Inc
The experiment in a line: KRas binding assay (TR-FRET tracer displacement), KRas G12D.

For experiment [4], the target named is T2, KRas^G12V (Homo sapiens, UniProt P01116, G12V).
T2 construct: Biotinylated KRas (corresponding to amino acids 1-169, produced at Accelegan Inc.); biotin (biotinylated); purchased Accelegan Inc
The experiment in a line: KRas binding assay (TR-FRET tracer displacement), KRas G12V.

Experiment [5] deals with KRas-mediated phosphorylation of ERK in H358 cells. Kind of experiment: Inhibition of KRas-mediated phosphorylation of ERK (Cisbio HTRF pERK), H358 cells. Format: cell-based. The settings on record: Homo sapiens, NCI-H358, HTRF pERK. An outline of the steps:
as §2

The target in experiment [6] is T3, KRas^G12R (Homo sapiens, UniProt P01116, G12R).
T3 construct: Biotinylated KRas (corresponding to amino acids 1-169, produced at Accelegan Inc.); biotin (biotinylated); purchased Accelegan Inc
The experiment in a line: KRas binding assay (TR-FRET tracer displacement), KRas G12R.

Experiment [7] relates to KRas-mediated phosphorylation of ERK in AsPC-1 cells. The experiment in a line: Inhibition of KRas-mediated phosphorylation of ERK (Cisbio HTRF pERK), AsPC-1 cells. It is filed as cell-based. Conditions: Homo sapiens, ASPC1, AsPC-1 cells; HTRF pERK. The procedure, abridged:
as §2

Experiment [8] concerns KRas-mediated phosphorylation of ERK in H460 cells. The experiment in a line: Inhibition of KRas-mediated phosphorylation of ERK (Cisbio HTRF pERK), H460 cells. It is filed as cell-based. The settings on record: Homo sapiens, NCI-H460, HTRF pERK. The procedure, abridged: as §2
Experiment [9] concerns KRas-mediated phosphorylation of ERK in PSN1 cells. The experiment in a line: Inhibition of KRas-mediated phosphorylation of ERK (Cisbio HTRF pERK), PSN1 cells. It is filed as cell-based. The settings on record: Homo sapiens. The procedure, abridged: (§3)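 Overnight culture at 37° C./5% CO2 in RPMI containing 10% FBS, seeded 6,000 cells per well, preceded the assay. A covered 4-hour incubation at room temperature followed, then HTRF signal for phosphorylated ERK was measured.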

The subject of experiment [10] is KRas-mediated phosphorylation of ERK in MKN1 cells. Kind of experiment: Inhibition of KRas-mediated phosphorylation of ERK (Cisbio HTRF pERK), MKN1 cells. Conditions: Homo sapiens, MKN-1. It is filed as cell-based. The procedure, abridged: as §3
In experiment [11] the test system is KRas-mediated phosphorylation of ERK in A549 cells. Kind of experiment: Inhibition of KRas-mediated phosphorylation of ERK (Cisbio HTRF pERK), A549 cells. Conditions: Homo sapiens, HTRF pERK. It is filed as cell-based. The procedure, abridged: as §1

SMILES strings stand for the structures. Where only a bound is given, the exact number is not on record here.

T2 sequence (P01116 1-169 isoform P01116-2 G12V): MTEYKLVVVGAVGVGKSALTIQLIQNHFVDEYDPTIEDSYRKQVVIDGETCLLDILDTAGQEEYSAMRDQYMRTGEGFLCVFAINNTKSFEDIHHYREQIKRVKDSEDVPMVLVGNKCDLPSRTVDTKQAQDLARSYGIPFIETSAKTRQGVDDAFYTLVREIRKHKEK
T3 sequence (P01116 1-169 isoform P01116-2 G12R): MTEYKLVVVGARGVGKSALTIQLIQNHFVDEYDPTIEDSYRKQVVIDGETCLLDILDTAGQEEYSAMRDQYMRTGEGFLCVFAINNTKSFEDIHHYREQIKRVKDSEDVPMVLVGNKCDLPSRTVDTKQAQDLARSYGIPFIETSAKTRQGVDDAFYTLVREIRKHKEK
T1 sequence (P01116 1-169 isoform P01116-2 G12D): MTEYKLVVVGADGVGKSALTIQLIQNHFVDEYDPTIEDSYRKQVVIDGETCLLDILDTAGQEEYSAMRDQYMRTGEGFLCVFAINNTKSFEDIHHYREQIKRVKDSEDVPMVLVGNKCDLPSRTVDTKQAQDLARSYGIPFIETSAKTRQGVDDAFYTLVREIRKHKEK

By IC50 is commonly meant the concentration that gives 50% inhibition. A low value points to higher potency. Turning to `CCCCN(C)C(=O)OC[C@@H]1CC[C@@]2(COc3nc(N4CCC[C@@](C)(O)C4)c4cnc(-c5cc(O)cc6ccc(F)c(CC)c56)c(F)c4n3)CCCN12` [Example 874, ((3S,7aR)-7a-(((7-(8-ethyl-7-fluoro-3-hydroxynaphthalen-1-yl)-8-fluoro-4-((R)-3-hydroxy-3-methylpiperidin-1-yl)pyrido[4,3-d]pyrimidin-2-yl)oxy)methyl)hexahydro-1H-pyrrolizin-3-yl)methyl butyl(methyl)carbamate], the 50% inhibitory concentration (IC50) in [1] was 48 nM; in [2], 81 nM; in experiment [3] it was below 2 nM; in [4], 2 nM; in experiment [5], 16 nM; in experiment [6], 3 nM. The concentration for half-maximal inhibition (IC50) stood at 12 nM in experiment [7]; 21 nM in experiment [8]; 2070 nM in experiment [9]; 22 nM in experiment [10]; 22 nM in experiment [11].
Take `CCc1c(F)ccc2cc(O)cc(-c3ncc4c(N5CCC[C@@](C)(O)C5)nc(OC[C@]56CCCN5[C@@H](COC)CC6)nc4c3F)c12` [Example 877, (R)-1-(7-(8-ethyl-7-fluoro-3-hydroxynaphthalen-1-yl)-8-fluoro-2-(((3R,7aR)-3-(methoxymethyl)tetrahydro-1H-pyrrolizin-7a(5H)-yl)methoxy)pyrido[4,3-d]pyrimidin-4-yl)-3-methylpiperidin-3-ol]: the concentration for half-maximal inhibition (IC50) in experiment [1] came out at 176 nM; in experiment [2], 189 nM; in experiment [3] it was 3 nM; in experiment [4], 3 nM; in [5], 40 nM; in experiment [6], 5 nM. For the same compound, the concentration for half-maximal inhibition (IC50) in [7] was found to be 79 nM; in experiment [8], 86 nM; in experiment [9], 2150 nM; in [10], 104 nM; in experiment [11], 92 nM.
For the compound `CCc1c(F)ccc2cc(O)cc(-c3ncc4c(N5CCC[C@@](C)(O)C5)nc(OC[C@@]56CCCN5[C@@H](CF)CC6)nc4c3F)c12` [Example 878, (R)-1-(7-(8-ethyl-7-fluoro-3-hydroxynaphthalen-1-yl)-8-fluoro-2-(((3R,7aS)-3-(fluoromethyl)tetrahydro-1H-pyrrolizin-7a(5H)-yl)methoxy)pyrido[4,3-d]pyrimidin-4-yl)-3-methylpiperidin-3-ol], the IC50 in experiment [1] was determined as 186 nM; in experiment [2], 83 nM; in [3], 3 nM; in experiment [4] it was 3 nM; in experiment [5], 52 nM; in [6], 6 nM. The half-inhibitory concentration (IC50) in experiment [7] came out at 43 nM; in [8], 53 nM; in experiment [9], 4000 nM; in experiment [10], 16 nM; in experiment [11], 125 nM.
For `CCc1c(F)ccc2cc(O)cc(-c3ncc4c(N5CCC[C@@](C)(O)C5)nc(OC[C@]56CCCN5[C@H](CF)CC6)nc4c3F)c12` [Example 879, (R)-1-(7-(8-ethyl-7-fluoro-3-hydroxynaphthalen-1-yl)-8-fluoro-2-(((3S,7aR)-3-(fluoromethyl)tetrahydro-1H-pyrrolizin-7a(5H)-yl)methoxy)pyrido[4,3-d]pyrimidin-4-yl)-3-methylpiperidin-3-ol], the IC50 in experiment [1] is 65 nM; in experiment [2], 35 nM; in experiment [3], 2 nM; in experiment [4] it was below 2 nM; in experiment [5], 14 nM; in experiment [6], 3 nM. The concentration for half-maximal inhibition (IC50) worked out at 12 nM in experiment [7]; 25 nM in experiment [8]; 889 nM in experiment [9]; 1 nM in [10]; 30 nM in experiment [11].
With `CCc1c(F)ccc2cc(O)cc(-c3ncc4c(N5CC6CCC(C5)C65OCCO5)nc(OC[C@@]56CCCN5C[C@H](F)C6)nc4c3F)c12` [Example 883, 5-ethyl-6-fluoro-4-(8-fluoro-2-(((2R,7aS)-2-fluorotetrahydro-1H-pyrrolizin-7a(5H)-yl)methoxy)-4-(3-azaspiro[bicyclo[3.2.1]octane-8,2′-[1,3]dioxolan]-3-yl)pyrido[4,3-d]pyrimidin-7-yl)naphthalen-2-ol], the IC50 stood at 772 nM in [1]; 252 nM in [2]; 53 nM in [3]; 7 nM in experiment [4]; 95 nM in experiment [5]; 12 nM in [6]. Moreover, the concentration for half-maximal inhibition (IC50) in experiment [7] is 1170 nM; in experiment [8], 211 nM; in experiment [9] it was above 10000 nM; in experiment [10], 94 nM; in [11], 822 nM.
Regarding `CCc1c(F)ccc2cc(O)cc(-c3ncc4c(N5CCC[C@@](C)(O)C5)nc(OC[C@]56CCCN5[C@H](COC)CC6)nc4c3F)c12` [Example 885, (R)-1-(7-(8-ethyl-7-fluoro-3-hydroxynaphthalen-1-yl)-8-fluoro-2-(((3S,7aR)-3-(methoxymethyl)tetrahydro-1H-pyrrolizin-7a(5H)-yl)methoxy)pyrido[4,3-d]pyrimidin-4-yl)-3-methylpiperidin-3-ol], the half-inhibitory concentration (IC50) in experiment [1] is 16 nM; in experiment [2], 39 nM; in [3], below 2 nM; in [4], below 2 nM; in experiment [5], 7 nM; in experiment [6], below 2 nM. The IC50 amounted to 14 nM in experiment [7]; 8 nM in experiment [8]; 1320 nM in experiment [9]; 5 nM in experiment [10]; 30 nM in experiment [11].
For the compound `CCc1c(F)ccc2cc(O)cc(-c3ncc4c(N5CCC[C@@](C)(O)C5)nc(OC[C@@]56CCCN5[C@@H](COC)CC6)nc4c3F)c12` [Example 886, (R)-1-(7-(8-ethyl-7-fluoro-3-hydroxynaphthalen-1-yl)-8-fluoro-2-(((3R,7aS)-3-(methoxymethyl)tetrahydro-1H-pyrrolizin-7a(5H)-yl)methoxy)pyrido[4,3-d]pyrimidin-4-yl)-3-methylpiperidin-3-ol], the concentration for half-maximal inhibition (IC50) turned out to be 59 nM in experiment [1]; 135 nM in [2]; 2 nM in experiment [3]; 2 nM in experiment [4]; 18 nM in experiment [5]; 4 nM in experiment [6]. Also, the IC50 in experiment [7] stood at 40 nM; in experiment [8] it was 27 nM; in experiment [9] it was 2560 nM; in experiment [10] it was 22 nM; in [11], 73 nM.
For the compound `CCc1c(F)ccc2cc(O)cc(-c3ncc4c(N5CC6CCC(C(=O)NC)(C6)C5)nc(OC[C@@]56CCCN5C[C@H](F)C6)nc4c3F)c12` (stereo partly drawn) [Example 889, 3-(7-(8-ethyl-7-fluoro-3-hydroxynaphthalen-1-yl)-8-fluoro-2-(((2R,7aS)-2-fluorotetrahydro-1H-pyrrolizin-7a(5H)-yl)methoxy)pyrido[4,3-d]pyrimidin-4-yl)-N-methyl-3-azabicyclo[3.2.1]octane-1-carboxamide], the half-inhibitory concentration (IC50) in [1] was 188 nM; in [2], 129 nM; in experiment [3] it was 4 nM; in experiment [4] it was below 2 nM; in experiment [5], 24 nM; in [6], 5 nM. Besides, the IC50 in experiment [7] is 600 nM; in experiment [8], 134 nM; in experiment [9], above 10000 nM; in experiment [10], 55 nM; in [11] it was 365 nM.

The values are drawn from US20260015350A1, “AZAQUINAZOLINE PAN-KRAS INHIBITORS” (Mirati Therapeutics, Inc., priority 2022, published 2026).
